Experimental data as given in ChEMBL document CHEMBL4406913, “INCB050465 (Parsaclisib), a Novel Next-Generation Inhibitor of Phosphoinositide 3-Kinase Delta (PI3Kδ)” (ACS Med Chem Lett, 2019).
Calls of active or inactive are those of the source. No cut-off for these calls is given here.

Legend:
[1] = test system: HEK293; test: Cytotoxicity against human HEK293 cells assessed as reduction in cell viability at 20 uM incubated for 72 hrs by celltiter glo luminescent assay; format: cell-based; conditions: hek293, 72 h
[2] = test system: Pfeiffer; test: Cytotoxicity against human Pfeiffer cells assessed as reduction in cell viability incubated for 4 days by [3H]-thymidine incorporation based liquid scintillation counter method; format: functional
[3] = Permeability across apical to basolateral side in human Caco2 cells at 50 uM incubated for 120 mins by LC/MS analysis; format: ADME, cell-based; conditions: Caco-2, read-out: permeability
[4] = AUC in rat at 4 mg/kg, po measured for 24 hrs by LC/MS/MS analysis; format: ADME, organism-based; conditions: in vivo
[5] = test system: Pfeiffer; test: Cytotoxicity against human Pfeiffer cells assessed as reduction in protein binding adjusted cell viability incubated for 4 days by [3H]-thymidine incorporation based liquid scintillation counter method; format: functional
[6] = target: T1, Phosphatidylinositol 4,5-bisphosphate 3-kinase catalytic subunit delta isoform (Homo sapiens, UniProt O00329)
T1 sequence (O00329 whole entry): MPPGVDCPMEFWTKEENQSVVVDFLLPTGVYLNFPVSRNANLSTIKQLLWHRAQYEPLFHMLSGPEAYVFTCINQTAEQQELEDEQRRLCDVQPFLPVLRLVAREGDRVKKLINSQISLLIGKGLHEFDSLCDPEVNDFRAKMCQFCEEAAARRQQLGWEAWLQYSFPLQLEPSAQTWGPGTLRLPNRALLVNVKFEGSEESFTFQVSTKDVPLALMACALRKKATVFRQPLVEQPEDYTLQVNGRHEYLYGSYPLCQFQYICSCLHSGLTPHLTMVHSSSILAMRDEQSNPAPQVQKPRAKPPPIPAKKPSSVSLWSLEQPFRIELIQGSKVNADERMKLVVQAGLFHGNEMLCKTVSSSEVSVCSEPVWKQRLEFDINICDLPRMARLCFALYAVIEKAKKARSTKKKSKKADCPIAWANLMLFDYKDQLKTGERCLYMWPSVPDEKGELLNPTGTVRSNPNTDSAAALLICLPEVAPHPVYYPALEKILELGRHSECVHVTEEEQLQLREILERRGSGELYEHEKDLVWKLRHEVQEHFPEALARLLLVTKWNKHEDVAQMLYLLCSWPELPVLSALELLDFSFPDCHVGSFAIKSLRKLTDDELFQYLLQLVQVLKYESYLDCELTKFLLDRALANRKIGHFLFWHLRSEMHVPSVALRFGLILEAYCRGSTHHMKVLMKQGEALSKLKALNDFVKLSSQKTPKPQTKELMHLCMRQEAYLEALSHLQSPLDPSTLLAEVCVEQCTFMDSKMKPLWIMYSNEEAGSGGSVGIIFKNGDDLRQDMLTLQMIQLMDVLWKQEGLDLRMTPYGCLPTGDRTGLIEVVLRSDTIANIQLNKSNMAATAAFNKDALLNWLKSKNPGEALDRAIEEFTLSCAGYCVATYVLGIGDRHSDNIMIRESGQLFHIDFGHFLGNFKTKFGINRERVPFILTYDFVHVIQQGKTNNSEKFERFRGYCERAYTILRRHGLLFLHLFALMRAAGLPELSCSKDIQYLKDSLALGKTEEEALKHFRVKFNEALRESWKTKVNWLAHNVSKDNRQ
Description: (§1) Inhibition of PI3Kdelta (unknown origin) using D-myophosphatidylinositol 4,5-bisphosphate as substrate incubated for 120 mins by [gamma-33P]ATP based SPA assay

[7] = Fractional unbound in human plasma; format: ADME, cell-free
[8] = target: Voltage-gated inwardly rectifying potassium channel KCNH2 (Homo sapiens, UniProt Q12809); test: Inhibition of human ERG channel at 30 uM incubated for 24 hrs in presence of [3H] Dofetilide by filter binding assay based scintillation counting analysis
[9] = test system: SU-DHL-6; test: Cytotoxicity against human SUDHL6 cells assessed as reduction in cell viability incubated for 4 days by celltiter glo luminescent assay; format: functional, cell-based; conditions: SU-DHL-6, 96 h
[10] = target: T2, Phosphatidylinositol 4,5-bisphosphate 3-kinase catalytic subunit delta isoform (Homo sapiens) (UniProt O00329)
T2 sequence (whole entry): T1 sequence (O00329 whole entry)
Description: as §1

[11] = Intrinsic clearance in human liver microsomes at 1 uM measured upto 30 mins by LC/MS analysis; format: ADME, Microsome; conditions: read-out: CLH (converted)
[12] = AUC in rat at 5 mg/kg, po measured for 24 hrs by LC/MS/MS analysis; format: ADME, organism-based; conditions: in vivo
[13] = Toxicity in Beagle dog; set-up: species or system Canis lupus familiaris; conditions: in vivo
[14] = AUC in cynomolgus monkey at 1 mg/kg, po measured for 24 hrs by LC/MS/MS analysis; format: ADME, organism-based, Macaca fascicularis; conditions: in vivo
[15] = Toxicity in dog assessed as testicular lesions observed on day 28; set-up: species or system Canis lupus familiaris; conditions: in vivo
[16] = AUC in cynomolgus monkey at 2 mg/kg, po measured for 24 hrs by LC/MS/MS analysis; format: ADME, organism-based, Macaca fascicularis; conditions: in vivo
[17] = Half life in cynomolgus monkey at 2 mg/kg, po measured for 24 hrs by LC/MS/MS analysis; format: ADME, organism-based, Macaca fascicularis; conditions: in vivo
[18] = Half life in cynomolgus monkey at 10 mg/kg, po measured for 24 hrs by LC/MS/MS analysis; format: ADME, organism-based, Macaca fascicularis; conditions: in vivo
[19] = AUC in cynomolgus monkey at 10 mg/kg, po measured for 24 hrs by LC/MS/MS analysis; format: ADME, organism-based, Macaca fascicularis; conditions: in vivo

Voltage-gated inwardly rectifying potassium channel KCNH2, sequence (Q12809 whole entry): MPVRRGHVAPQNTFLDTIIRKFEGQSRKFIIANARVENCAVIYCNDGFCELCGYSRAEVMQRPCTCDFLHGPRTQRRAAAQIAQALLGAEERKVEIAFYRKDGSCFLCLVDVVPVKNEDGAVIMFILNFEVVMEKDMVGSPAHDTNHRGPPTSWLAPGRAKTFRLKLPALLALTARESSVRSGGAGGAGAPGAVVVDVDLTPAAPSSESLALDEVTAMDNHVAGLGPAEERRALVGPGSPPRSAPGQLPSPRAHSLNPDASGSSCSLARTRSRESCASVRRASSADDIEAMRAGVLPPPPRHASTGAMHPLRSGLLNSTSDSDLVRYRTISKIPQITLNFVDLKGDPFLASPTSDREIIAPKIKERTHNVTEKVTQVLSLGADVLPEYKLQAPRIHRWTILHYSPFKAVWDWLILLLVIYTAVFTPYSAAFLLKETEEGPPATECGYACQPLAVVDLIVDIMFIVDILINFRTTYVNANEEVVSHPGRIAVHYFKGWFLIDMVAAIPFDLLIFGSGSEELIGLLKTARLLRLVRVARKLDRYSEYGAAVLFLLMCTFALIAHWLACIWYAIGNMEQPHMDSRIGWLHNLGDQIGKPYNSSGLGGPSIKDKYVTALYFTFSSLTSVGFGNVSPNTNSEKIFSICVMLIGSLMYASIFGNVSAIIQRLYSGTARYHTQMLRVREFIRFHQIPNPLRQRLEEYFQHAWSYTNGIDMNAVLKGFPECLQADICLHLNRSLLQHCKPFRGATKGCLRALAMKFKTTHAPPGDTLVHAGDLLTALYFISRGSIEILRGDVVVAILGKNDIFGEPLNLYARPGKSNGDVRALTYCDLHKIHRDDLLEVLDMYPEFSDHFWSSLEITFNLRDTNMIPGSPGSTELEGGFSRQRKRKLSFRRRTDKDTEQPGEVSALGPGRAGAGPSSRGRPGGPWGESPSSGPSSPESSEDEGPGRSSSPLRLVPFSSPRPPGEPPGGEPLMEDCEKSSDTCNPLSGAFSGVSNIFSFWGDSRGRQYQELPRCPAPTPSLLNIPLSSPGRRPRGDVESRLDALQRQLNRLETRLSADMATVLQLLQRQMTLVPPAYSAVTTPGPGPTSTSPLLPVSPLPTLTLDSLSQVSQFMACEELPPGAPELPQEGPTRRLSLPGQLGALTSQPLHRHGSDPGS

Row | IC50 [6] [nM] | fraction unbound [7] | SMILES | IC50 [2] [nM] | IC50 [5] [nM] | IC50 [9] [nM] | other results
1 | 2.4 | 0.1 | COc1c([C@H](C)n2nc(C)c3c(N)ncnc32)cc(Cl)c(C)c1C1CNC(=O)C1 (stereo partly drawn) | 51 | 480 | 13 | inhibition [10]: inactive; Papp A→B at 2 h, 50 µM [3]: 2.8 ×10⁻⁶ cm/s; inhibition (INH) [8]: Not Active; CLint scaled at 1 µM [11]: 11.7 mL/min/kg
2 | < 1 | 0.23 | CCOc1c([C@H](C)n2nc(C)c3c(N)ncnc32)cc(Cl)c(C#N)c1C1CNC(=O)C1 (stereo partly drawn) | 1.7 | 4.1 | 0.47 | inhibition [10]: inactive; Papp A→B at 2 h, 50 µM [3]: 0.3 ×10⁻⁶ cm/s; CLint scaled at 1 µM [11]: 11.7 mL/min/kg
3 | 11 | 0.19 | COc1c(C(C)n2nc(C)c3c(N)ncnc32)cc(Cl)c(C)c1C1CCN(C)CC1 (racemic) | 11 | 53 | 44 | 
4 | 0.93 | 0.089 | COc1c([C@H](C)n2nc(C)c3c(N)ncnc32)cc(Cl)c(C)c1-c1ccnc(C(=O)N(C)C)c1 | 8.6 | 61 | 7.4 | 
5 | 1.9 | 0.42 | COc1c([C@H](C)n2nc(C)c3c(N)ncnc32)cc(Cl)c(C#N)c1C1CN(C[C@H](C)O)C1 | 1.5 | 3.6 | 2.4 | AUC at 24 h [14]: 4.1 µM·h; AUC at 24 h [12]: 6.8 µM·h; inhibition (INH) [8]: Active; Activity [15]: Toxic
6 | 1.4 | 0.065 | CCOc1c([C@H](C)n2nc(C)c3c(N)ncnc32)cc(Cl)c(C)c1C1CNC(=O)C1 (stereo partly drawn) | 4.8 | 47 | 2.1 | inhibition [10]: inactive; Papp A→B at 2 h, 50 µM [3]: 1.9 ×10⁻⁶ cm/s; CLint scaled at 1 µM [11]: 11.7 mL/min/kg

Second part, the compound before the results:

Row | SMILES | IC50 [6] [nM] | fraction unbound [7] | IC50 [2] [nM] | IC50 [5] [nM] | IC50 [9] [nM] | other results
7 | COc1c([C@H](C)Nc2ncnc(N)c2C#N)cc(Cl)c(C)c1-c1cncc(S(C)(=O)=O)c1 | 0.99 | 0.14 | 3.4 | 17 | 3.1 | Activity [1]: Toxic; Papp A→B at 2 h, 50 µM [3]: 7.9 ×10⁻⁶ cm/s; AUC at 24 h [4]: 10 µM·h; inhibition (INH) [8]: Active
8 | C[C@H](Nc1ncnc2[nH]cnc12)c1cc(Cl)c2cccnc2c1-c1cccc(F)c1 | 8.4 | 0.014 | 50 | 1000 | 140 | 
9 | COc1c(C(C)n2ncc3c(N)ncnc32)cc(Cl)c(C)c1-c1ccnc(C(=O)N(C)C)c1 (racemic) | 120 | 0.092 | 610 | 4500 | 840 | 
10 | CC(Nc1ncnc2[nH]cnc12)c1ccc2cccnc2c1-c1cccc(F)c1 (racemic) | 430 | 0.1 | 490 | 3200 | 1800 | 
11 | COc1c([C@H](C)Nc2ncnc3[nH]cnc23)cc(Cl)c(C)c1-c1ccc(S(C)(=O)=O)cc1 |  | 0.013 | 130 | 3100 | 170 | 
12 | Cc1c(Cl)cc(C(C)Nc2ncnc3[nH]cnc23)c(-c2cccc(F)c2)c1C#N (racemic) |  | 0.0064 | 660 |  | 1300 | 
13 | Cc1c(Cl)cc(C(C)Nc2ncnc3[nH]cnc23)c(-c2cccc(F)c2)c1-c1cnn(C)c1 (racemic) | 5.3 |  | 8.7 |  | 60 | 
14 | COc1c([C@H](C)Nc2ncnc3[nH]cnc23)cc(Cl)c(C)c1-c1cncc(S(C)(=O)=O)c1 | 1.7 | 0.12 | 9.5 | 40 | 14 | Papp A→B at 2 h, 50 µM [3]: 0.5 ×10⁻⁶ cm/s; AUC at 24 h [12]: 3 µM·h
15 | C[C@H](Nc1ncnc2[nH]cnc12)c1cc(Cl)c2ccnnc2c1-c1cccc(F)c1 |  | 0.059 | 26 | 270 | 73 | Activity [13]: Toxic; AUC at 24 h [12]: 13 µM·h
16 | COc1c([C@H](C)Nc2ncnc3[nH]cnc23)cc(Cl)c(C)c1-c1cnn(C)c1 | 2.8 | 0.029 | 120 | 950 | 100 | 
17 | COc1c([C@H](C)Nc2ncnc(N)c2C#N)cc(Cl)c(C)c1-c1ccc(C(=O)N(C)C)cn1 | 1.8 | 0.22 | 17 | 61 | 21 | Activity [1]: Non-Toxic; AUC at 24 h [4]: 7.7 µM·h; AUC at 24 h [16]: 0.2 µM·h; inhibition (INH) [8]: Not Active; half-life [17]: 12 min
18 | Cc1csc2nc([C@H](C)Nc3ncnc4[nH]cnc34)c(-c3cccc(F)c3)c(=O)n12 [DEZAPELISIB] |  | 0.17 | 14 | 66 | 18 | half-life [18]: 78 min; AUC at 24 h [19]: 4.9 µM·h; AUC at 24 h [12]: 4.4 µM·h
